# In PMC8901748, “A novel prostaglandin E receptor 4 (EP4) small molecule antagonist induces articular cartilage regeneration” (Cell Discovery, 2022):
# Assays:
# [1] = system: Mmp3, Mmp13, Col2, p-CREB, p-STAT3, p-p65, IκBα in primary mouse chondrocytes; experiment: Western blotting in primary articular chondrocytes; format: cell-based
# Protocol: ATDC5 cell line was purchased from Riken BioResource Center (Tsukuba, Japan) and grown in a 1:1 mixture of DMEM/F12 medium (Corning, 10-092-CVR) supplemented with 5% fetal bovine serum (Gibco, 10099, USA) and 1% penicillin-streptomycin solution (Life Technologies). Cells were maintained at 37 °C under 5% CO2. Primary chondrocytes were obtained from knee joint cartilage of newborn mice. Knee joints were dissected from the tibia plateau and femoral condyle articular cartilage of mouse pups and digested in 0.1% collagenase type II (Sigma) overnight at 37 °C and chondrocytes were harvested by centrifugation. Primary chondrocytes were cultured at a density of 5 × 10^3 cells per ml at 37 °C with 5% CO2. DMEM/F12 medium with 10% fetal bovine serum (FBS) and 1% penicillin–streptomycin was used to culture the primary chondrocytes. Chondrogenic differentiation were induced with chondrogenic medium, which contains insulin-transferrin-selenium (ITS) (Sigma, I3146), 10 ng/ml TGF-β3 (PEPROTECH, 100-36E, USA), 100 nM Dexamethasone (Sigma, D4902), 50 μg/ml VC (Sigma), 1 mM sodium pyruvate (Sigma) and 40 μg/ml proline (Sigma), and/or treatment with rmIL-1β (R&D, 401-ML/CF), TNFα (PEPROTECH, 300-01A-50) in DMEM/F12 for indicated days. Western blotting was performed according to standard protocols. Antibodies used were: rabbit anti-Mmp3 (1:1000, HuaBio), rabbit anti-Mmp13 (1:500, abcam, ab39012), rabbit anti-p-CREB (1:2000, Cell Signaling Technology, 87G3), rabbit anti-CREB (1:2000, Cell Signaling Technology, 48H2), mouse anti-GAPDH (1:5000; Sigma-Aldrich, G8795), rabbit anti-Col2 (Abcam, Ab34712), rabbit anti-STAT3 (1:2000; Abcam, ab68153), rabbit anti-p-STAT3 (Y705) (1:2000; Abcam, ab76315), rabbit anti -p65 (1:1000; CST, 3034), rabbit anti-p-p65 (1:1000; CST, 3033), and rabbit anti-IκBα (1:1000; Abways, CY5026).
# primary chondrocytes = experiment: Chondrocyte micromass differentiation, Alcian blue staining; format: cell-based, mouse; details: chondrogenic media, 7 days
# Protocol: ATDC5 cell line was purchased from Riken BioResource Center (Tsukuba, Japan) and grown in a 1:1 mixture of DMEM/F12 medium (Corning, 10-092-CVR) supplemented with 5% fetal bovine serum (Gibco, 10099, USA) and 1% penicillin-streptomycin solution (Life Technologies). Cells were maintained at 37 °C under 5% CO2. Primary chondrocytes were obtained from knee joint cartilage of newborn mice. Knee joints were dissected from the tibia plateau and femoral condyle articular cartilage of mouse pups and digested in 0.1% collagenase type II (Sigma) overnight at 37 °C and chondrocytes were harvested by centrifugation. Primary chondrocytes were cultured at a density of 5 × 10^3 cells per ml at 37 °C with 5% CO2. DMEM/F12 medium with 10% fetal bovine serum (FBS) and 1% penicillin–streptomycin was used to culture the primary chondrocytes. […]
# Micromass cultures were rinsed with PBS, fixed in PFA for 10 min, and then incubated with Alcian blue staining solution (1.0% Alcian blue in 0.1 N HCl) overnight at 4 °C. […] Alcian blue-stained cultures were extracted using 6 M guanidine hydrochloride and absorbance was measured at 620 nm.
# [2] = system: mouse femoral head cartilage explants; experiment: Mouse femoral head cartilage explant culture; format: cell-based; details: 1 ng/ml IL-1β, 48 h
# [3] = system: Sox9 promoter-Luc in ATDC5 cells; experiment: Sox9 promoter-Luc luciferase reporter assay; format: cell-based, mouse; details: 6 h
# Protocol: (§1) Six firefly luciferase reporters were used in the Luciferase assay, including CRE-Luc (PathDetect CRE cis-Reporting System; Stratagene, La Jolla CA) driven by a basic promoter (TATA box) plus four repeats of CRE; Sox9 promoter-Luc contains human SOX9 proximal promoter region (−1034 bp to +67 bp)[45]; 4 × 48-p89-Luc, mouse Col2a1 minimal promoter. AP-1-Luc, Nf-κb-Luc, STAT-Luc were obtained from Stratagene. Chondrocytes were cultured in 24-well plates and 300 ng firefly luciferase reporter constructs were transiently transfected using transfection reagent TransExellent-DNA (Cenji Biotech Inc, China) following manufacturer’s instruction, and 15 ng of the Copia-Renilla luciferase reporter was co-transfected as a normalization control. Cells were treated with the indicated reagents for 48 h after transfection. The Dual-Luciferase measurements were performed in triplicate using the Luciferase assay kit (Promega) and a LUMIstar Omega luminometer (BMG Labtech, Mornington, Australia).
# AP-1-Luc in ATDC5 cells = experiment: AP-1-Luc luciferase reporter assay; format: cell-based, mouse; details: 2 ng/ml IL-1β, 30 μM HL-43, 6 h
# Protocol: as §1
# Nf-κb-Luc in ATDC5 cells = experiment: NF-κB-Luc luciferase reporter assay; format: cell-based, mouse; details: 2 ng/ml IL-1β, 30 μM HL-43, 6 h
# Protocol: as §1
# [4] = system: Sox9 target genes in ATDC5 cells; experiment: qRT-PCR of Sox9 target genes in ATDC5 cells; format: cell-based, mouse; details: 30 μM HL-43, 24 hr
# Protocol: Quantitative RT-PCR was performed to measure the relative mRNA levels. RNA samples were prepared from the chondrocytes using Trizol (Takara). cDNA was generated using the Prime Script RT reverse transcriptase kit (Yeasen, Drr036a). Primers used for amplification were shown in Supplementary Table S1, GAPDH was used as the house keeping gene.
# gastrointestinal tract = experiment: Gastrointestinal tract toxicity (data not shown); format: in vivo; details: compared to Celecoxib
structure (smiles),measurement,setting,value
C[C@H](NC(=O)c1c(-c2ccccc2)nnn1CCOc1ccc(F)cc1)c1ccc(C(=O)O)cc1 [HL-43],Phosphorylation of CREB by Western blotting,"[1]; chondrocytes, 2 ng/ml IL-1β, 100 nM PGE2, 1 h",enhanced by HL-43 in a dose-dependent manner
same,Mmp3/13 expression by Western blotting,"[1]; primary articular chondrocytes, 1 ng/ml IL-1β, 24 h",downregulated Mmp3/13 expression in a dose-dependent manner
same,Phosphorylation of STAT3,"[1]; primary mouse articular chondrocytes, 2 ng/ml IL-1β, 1 h",reduced the phosphorylation of STAT3
same,Phosphorylation of p65 and degradation of IκBα,"[1]; primary mouse articular chondrocytes, IL-1β, 30 μM HL-43, 1 h",little effects
same,Col2 expression by Western blotting,"[1]; primary mouse chondrocytes, 24 h",dose-dependently induced Col2 expression
same,Chondrogenesis of primary chondrocytes (Alcian blue),primary chondrocytes,promoted the chondrogenesis of the primary chondrocytes in a dose-dependent manner
same,Mmp13 immunohistochemistry staining,[2],reduced immunohistochemistry staining for the catabolic marker Mmp13
same,Proteoglycan content by S.O. staining,[2],favorable effect on the proteoglycan content
same,Sox9 promoter-Luc activity after IL-1β,[3]; 2 ng/ml IL-1β,partially rescued the Sox9 transcriptional expression in a dose-dependent manner
same,Sox9 promoter-Luc activity,[3]; without IL-1β,increased by HL-43 stimulation in a dose-dependent manner
same,AP-1 luciferase reporter activity,AP-1-Luc in ATDC5 cells,not AP-1 or NF-κB
same,NF-κB luciferase reporter activity,Nf-κb-Luc in ATDC5 cells,not AP-1 or NF-κB
same,"Sox9 target genes (Col2a1, Acan, Sox5, Col9a1, Col11a1, Col27a1, Dcn, Prg4), qRT-PCR",[4],upregulated
same,Toxicity in gastrointestinal tract,gastrointestinal tract,lower toxicity
